Experiments:
estrogen receptor = biological target: T1, estrogen receptor (Homo sapiens, UniProt P03372); assay: In vitro Estrogen Receptor Binding Assay (competition with [3H]-17β-estradiol); conditions: compared with indenoindole #6
T1 construct: expressed in transfected cells; host or cells: CHO cells overexpressing the receptor; cytosol (100,000 g supernatant)
T1 sequence (P03372 1-595): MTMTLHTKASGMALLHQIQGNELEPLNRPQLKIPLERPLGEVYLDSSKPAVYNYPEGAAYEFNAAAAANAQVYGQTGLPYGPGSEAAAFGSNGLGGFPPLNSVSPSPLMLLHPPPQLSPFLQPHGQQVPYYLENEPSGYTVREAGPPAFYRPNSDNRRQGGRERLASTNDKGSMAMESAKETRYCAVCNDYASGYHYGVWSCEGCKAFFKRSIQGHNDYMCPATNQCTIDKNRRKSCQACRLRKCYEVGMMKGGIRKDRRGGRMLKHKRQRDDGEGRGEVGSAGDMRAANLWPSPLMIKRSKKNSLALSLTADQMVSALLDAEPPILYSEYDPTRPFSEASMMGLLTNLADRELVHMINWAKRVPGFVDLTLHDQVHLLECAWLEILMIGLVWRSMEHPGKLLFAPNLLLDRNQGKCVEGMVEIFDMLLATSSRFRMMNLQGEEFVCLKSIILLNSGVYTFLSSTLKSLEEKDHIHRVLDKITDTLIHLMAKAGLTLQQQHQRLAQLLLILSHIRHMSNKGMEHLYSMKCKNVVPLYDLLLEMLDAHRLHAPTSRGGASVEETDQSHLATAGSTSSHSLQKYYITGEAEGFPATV
Experimental: CHO cells overexpressing the estrogen receptor were grown in 150 mm^2 dishes in DMEM+10% dextran coated charcoal, stripped fetal bovine serum. The plates were washed twice with PBS and once with 10 mM Tris-HCl, pH 7.4, 1 mM EDTA. Cells were harvested by scraping the surface and then the cell suspension was placed on ice. Cells were disrupted with a hand-held motorized tissue grinder using two, 10-second bursts. The crude preparation was centrifuged at 12,000 g for 20 minutes followed by a 60 minute spin at 100,000 g to produce a ribosome free cytosol. The cytosol was then frozen and stored at -80° C. […]
The competition assay was performed in a 96-well plate (polystyrene*) which binds <2.0% of the total input [^3 H]-17β-estradiol and each data point was gathered in triplicate. […] Samples were counted to 2% or 10 minutes, whichever occurs first. […] 17βestradiol, wells containing radioactivity and cytosol, but not processed with charcoal were included to quantitate amounts of available isotope. Also, wells containing radioactivity but no cytosol were processed with charcoal to estimate unremovable DPM of [^3 H] […]
Counts per minute (CPM) of radioactivity were automatically converted to disintegrated per minute (DPM) by the Beckman LS 7500 Scintillation Counter using a set of quenched standards to generate a H# for each sample. […]

human estrogen receptor = biological target: T2, human estrogen receptor (Homo sapiens, UniProt P03372); assay: 2× VIT ERE Infection Assay (infection luciferase activity); type: cell-based; conditions: 24 h, read-out: Infection Luciferase Activity, 1 uM
T2 construct: expressed in transfected cells; host or cells: CHO (Chinese Hamster Ovary) cells, stably transfected
Experimental: 48 h prior to treatment the growth medium was replaced with DMEM lacking phenol red+10% dextran coated charcoal stripped FBS (treatment medium).
Reporter DNA (Promega plasmid pGL2 containing two tandem copies of the vitellogenin ERE in front of the minimal thymidine kinase promoter driving the luciferase gene) was combined with the B-galactosidase expression plasmid pCH110 (Pharmacia) and carrier DNA (pTZ18U) in the following ratio:
20 uL of this mixture was added to each well of cells and remained on the cells for 16 h. […] Each treatment condition was performed on 8 wells (n=8) which were incubated for 24 h prior to the luciferase assay.
After 24 h exposure to compounds, the media was removed and each well washed 2× with 125 uL of PBS lacking Mg^++ and Ca^++. After removing the PBS, 25 uL of Promega lysis buffer was added to each well and allowed to stand at room temperature for 15 min, followed by 15 min at -80° C. and 15 min at 37° C.
The luciferan substrate (Promega) was added in 100 uL aliquots to each well automatically by the luminometer and the light produced (relative light units) was read 10 seconds after addition.
To the remaining 5 uL of lysate 45 uL of PBS was added. Then 50 uL of Promega B-galactosidase 2× assay buffer was added, mixed well and incubated at 37° C. for 1 hour. A plate containing a standard curve (0.1 to 1.5 milliunits in triplicate) was set up for each experimental run. The plates were analyzed on a Molecular Devices spectrophotometric plate reader at 410 nm. The optical densities for the unknown were converted to milliunits of activity by mathematical extrapolation from the standard curve.
The luciferase data was generated as relative light units (RLUs) accumulated during a 10 second measurement and automatically transferred to a JMP (SAS Inc) file where background RLUs were subtracted. The B-galactosidase values were automatically imported into the file and these values were divided into the RLUs to normalize the data. The mean and standard deviations were determined from a n=8 for each treatment.

bone = conditions: in humans; cited from earlier work
uterus = conditions: in vivo; cited from earlier work
ovariectomized rat = conditions: cited from earlier work

Structure (SMILES)	bind to the ER receptor (comparison in words) (estrogen receptor)	activation at 1 µM (human estrogen receptor)	further results
COc1ccc2c(c1)CCc1c-2n(Cc2ccc(OCCN3CCCCC3)cc2)c2ccc(O)cc12 [Cmpd. 21, 3-Methoxy-11-[4-(2-piperidin-1-yl-ethoxy)-benzyl]-5,11-dihydro-6H-benzo[a]carbazol-8-ol]	bind better to the ER receptor than the indenoindole #6	-7%	–
COc1ccc2c(c1)CCc1c-2n(Cc2ccc(OCCN3CCCCCC3)cc2)c2ccc(O)cc12 [Cmpd. 22, 11-[4-(2-Azepan-1-yl-ethoxy)-benzyl]-3-methoxy-5,11-dihydro-6H-benzo[a]carbazol-8-ol]	bind better to the ER receptor than the indenoindole #6	1%	–
COc1ccc2c(c1)Cc1c-2n(Cc2ccc(OCCN3CCCCC3)cc2)c2ccc(O)cc12 [Cmpd. 6, 2-Methoxy-5-[4-(2-piperidin-1-yl-ethoxy)-benzyl]-5,10-dihydro-indeno[1,2-b]indol-8ol]	–	-2%	–
CC/C(=C(\c1ccccc1)c1ccc(OCCN(C)C)cc1)c1ccccc1 [Tamoxifen]	–	–	effect on the bone (bone): estrogen agonist-like effect on the bone; agonism in the uterus (uterus): partial agonist in the uterus
O=C(c1ccc(OCCN2CCCCC2)cc1)c1c(-c2ccc(O)cc2)sc2cc(O)ccc12 [Raloxifene]	–	–	ability to spare bone (ovariectomized rat): maintaining the ability to spare bone; stimulation of uterine growth (ovariectomized rat; compared with Tamoxifen): stimulate uterine growth in the ovariectomized rat to a lesser extent than Tamoxifen

From US6159959A, “Combined estrogen and antiestrogen therapy” (American Home Products Corporation, priority 1999, dated 2000)
